Data published in patent US8609708B2 (Human BioMolecular Research Institute, priority 2003, dated 2013).
Where two headings read alike, the source gives them in different places.

How the values were obtained:
[1] = target: Ach binding protein (AchBP) (Lymnaea stagnalis (Great pond snail) (Helix stagnalis), UniProt P58154); conditions: for binding to the AchBP (in words): fluorescence quenching; for AchBP: intrinsic fluorescence quenching, 20 nM AchBP
Description: To examine the degree of interaction with the nicotinic acetylcholine receptor, we examined the binding interaction of the synthetic inhibitors with the Ach binding protein (AchBP) from the fresh water snail (Table 3).

CYP2B6 = CYP2B6 (Homo sapiens (Human), UniProt P20813); assay: CYP2B6 Vivid blue substrate O-dealkylation inhibition; assay type: biochemical
Chain of CYP2B6 (P20813 whole entry): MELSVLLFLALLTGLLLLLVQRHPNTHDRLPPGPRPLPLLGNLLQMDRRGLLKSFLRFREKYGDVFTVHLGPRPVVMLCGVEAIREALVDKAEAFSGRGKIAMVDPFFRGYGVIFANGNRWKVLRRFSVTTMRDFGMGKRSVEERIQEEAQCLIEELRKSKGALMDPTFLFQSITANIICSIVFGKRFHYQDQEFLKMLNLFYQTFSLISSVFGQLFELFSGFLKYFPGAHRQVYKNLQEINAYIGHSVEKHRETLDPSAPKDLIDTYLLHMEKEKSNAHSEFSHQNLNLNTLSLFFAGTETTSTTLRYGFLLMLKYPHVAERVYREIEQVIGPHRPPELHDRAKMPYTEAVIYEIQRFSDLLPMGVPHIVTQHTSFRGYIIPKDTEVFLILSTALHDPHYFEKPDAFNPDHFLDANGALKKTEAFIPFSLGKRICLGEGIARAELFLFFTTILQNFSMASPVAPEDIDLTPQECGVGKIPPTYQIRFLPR

CYP3A4 = CYP3A4 (Homo sapiens (Human), UniProt P08684); assay: in vitro
Chain of CYP3A4 (P08684 whole entry): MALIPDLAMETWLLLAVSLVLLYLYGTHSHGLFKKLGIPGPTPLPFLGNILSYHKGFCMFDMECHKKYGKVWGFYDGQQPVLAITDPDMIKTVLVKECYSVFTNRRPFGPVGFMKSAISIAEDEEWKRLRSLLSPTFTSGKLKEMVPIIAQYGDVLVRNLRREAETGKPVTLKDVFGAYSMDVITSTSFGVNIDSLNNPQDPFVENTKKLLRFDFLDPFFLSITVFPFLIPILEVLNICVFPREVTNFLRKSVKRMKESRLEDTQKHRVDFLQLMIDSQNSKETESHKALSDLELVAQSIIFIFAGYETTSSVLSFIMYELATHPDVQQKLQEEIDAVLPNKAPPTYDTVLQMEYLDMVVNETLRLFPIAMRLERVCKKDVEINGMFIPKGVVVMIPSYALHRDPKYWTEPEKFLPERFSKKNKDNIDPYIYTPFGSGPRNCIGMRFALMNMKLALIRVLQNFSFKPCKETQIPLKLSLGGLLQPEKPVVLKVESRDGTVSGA

CYP2D6 = CYP2D6 (Homo sapiens (Human), UniProt P10635); assay: CYP2D6 Vivid blue substrate O-dealkylation inhibition; assay type: biochemical
Chain of CYP2D6 (P10635 whole entry): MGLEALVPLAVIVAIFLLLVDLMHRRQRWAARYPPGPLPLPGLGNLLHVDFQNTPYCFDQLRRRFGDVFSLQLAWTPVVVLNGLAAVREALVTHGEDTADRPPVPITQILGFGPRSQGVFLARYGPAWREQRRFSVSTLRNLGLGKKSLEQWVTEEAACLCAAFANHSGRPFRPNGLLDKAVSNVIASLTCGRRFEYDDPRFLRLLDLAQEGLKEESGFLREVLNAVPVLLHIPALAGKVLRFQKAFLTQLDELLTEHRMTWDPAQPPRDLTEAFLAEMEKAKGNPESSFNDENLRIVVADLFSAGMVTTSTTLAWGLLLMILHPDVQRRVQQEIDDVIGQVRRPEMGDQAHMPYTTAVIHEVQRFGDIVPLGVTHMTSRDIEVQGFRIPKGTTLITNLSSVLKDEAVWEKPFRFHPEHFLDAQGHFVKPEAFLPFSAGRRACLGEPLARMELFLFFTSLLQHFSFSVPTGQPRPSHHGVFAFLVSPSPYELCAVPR

CYP2E1 = CYP2E1 (Homo sapiens (Human), UniProt P05181); assay: CYP2E1 Vivid blue substrate O-dealkylation inhibition; assay type: biochemical
Chain of CYP2E1 (P05181 whole entry): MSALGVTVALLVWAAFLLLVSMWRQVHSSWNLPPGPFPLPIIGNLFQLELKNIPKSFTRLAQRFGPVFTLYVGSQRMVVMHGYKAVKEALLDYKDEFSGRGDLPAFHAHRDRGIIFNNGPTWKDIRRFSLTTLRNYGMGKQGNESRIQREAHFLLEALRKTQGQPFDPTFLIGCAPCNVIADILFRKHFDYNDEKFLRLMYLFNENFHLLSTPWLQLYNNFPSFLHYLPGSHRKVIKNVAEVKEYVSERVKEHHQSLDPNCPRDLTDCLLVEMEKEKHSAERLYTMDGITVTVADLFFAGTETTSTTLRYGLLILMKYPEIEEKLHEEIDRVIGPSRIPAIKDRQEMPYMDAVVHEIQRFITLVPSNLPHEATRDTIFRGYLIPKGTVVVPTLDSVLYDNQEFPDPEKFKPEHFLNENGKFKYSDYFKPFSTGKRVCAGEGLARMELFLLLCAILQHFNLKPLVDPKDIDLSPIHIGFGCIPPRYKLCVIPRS

human CYP2A6 [2] = target: T1, human CYP2A6 (Homo sapiens (Human), UniProt P11509)
T1 sequence (P11509 whole entry): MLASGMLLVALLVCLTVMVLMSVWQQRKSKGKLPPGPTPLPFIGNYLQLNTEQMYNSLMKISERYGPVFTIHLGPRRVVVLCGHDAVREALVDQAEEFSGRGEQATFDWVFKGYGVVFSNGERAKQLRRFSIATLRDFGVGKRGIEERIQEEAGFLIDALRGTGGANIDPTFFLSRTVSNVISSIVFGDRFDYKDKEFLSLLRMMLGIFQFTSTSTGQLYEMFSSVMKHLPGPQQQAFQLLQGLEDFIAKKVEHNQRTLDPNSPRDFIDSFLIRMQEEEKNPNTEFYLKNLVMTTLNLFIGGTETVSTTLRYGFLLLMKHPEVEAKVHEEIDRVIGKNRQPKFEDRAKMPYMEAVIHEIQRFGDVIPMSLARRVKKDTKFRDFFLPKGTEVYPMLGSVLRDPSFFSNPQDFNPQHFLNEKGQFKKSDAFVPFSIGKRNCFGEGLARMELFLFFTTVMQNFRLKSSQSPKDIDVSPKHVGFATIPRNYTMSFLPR

Microsomal Human CYP2A6 = Microsomal Human CYP2A6 (Homo sapiens (Human), UniProt P11509); assay: Microsomal human CYP2A6-mediated nicotine oxidase activity
Chain of Microsomal Human CYP2A6 (P11509 whole entry): as above
Description: For each determination, cold microsomes (of predetermined CYP2A6 activity) was added to the NADPH-generating system containing 50 mM Tris (pH=7.4) and DETAPAC (to prevent metal-catalyzed autooxidation) and inhibitor. Because rat liver cytosol has little CYP2A6 activity and high levels of aldehyde oxidase, 0.2 mg/incubation was used to quantitatively convert the nicotine iminium ion to cotinine. […] For initial evaluation of a large number of samples, [^3]H-nicotine was used in a TLC/radiometric format. […] Quantification of scrapped bands was by scintillation counting.

CYP2C9 = CYP2C9 (Homo sapiens (Human), UniProt P11712); assay: CYP2C9 Vivid blue substrate O-dealkylation inhibition; assay type: biochemical
Chain of CYP2C9 (P11712 whole entry): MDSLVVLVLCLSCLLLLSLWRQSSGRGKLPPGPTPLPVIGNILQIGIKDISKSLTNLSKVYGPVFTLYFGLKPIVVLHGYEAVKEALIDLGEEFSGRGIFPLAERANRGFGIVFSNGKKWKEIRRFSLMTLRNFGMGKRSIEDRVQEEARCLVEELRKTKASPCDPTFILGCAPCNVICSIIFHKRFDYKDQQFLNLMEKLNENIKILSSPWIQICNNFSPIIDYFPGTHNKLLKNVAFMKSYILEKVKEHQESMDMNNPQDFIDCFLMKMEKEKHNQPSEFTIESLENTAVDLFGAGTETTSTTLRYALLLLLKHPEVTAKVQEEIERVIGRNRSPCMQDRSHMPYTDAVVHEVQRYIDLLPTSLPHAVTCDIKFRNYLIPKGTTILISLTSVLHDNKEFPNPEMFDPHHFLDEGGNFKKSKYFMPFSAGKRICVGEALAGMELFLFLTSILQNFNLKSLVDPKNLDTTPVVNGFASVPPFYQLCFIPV

CYP2C19 = CYP2C19 (Homo sapiens (Human), UniProt P33261); assay: CYP2C19 Vivid blue substrate O-dealkylation inhibition; assay type: biochemical
Chain of CYP2C19 (P33261 whole entry): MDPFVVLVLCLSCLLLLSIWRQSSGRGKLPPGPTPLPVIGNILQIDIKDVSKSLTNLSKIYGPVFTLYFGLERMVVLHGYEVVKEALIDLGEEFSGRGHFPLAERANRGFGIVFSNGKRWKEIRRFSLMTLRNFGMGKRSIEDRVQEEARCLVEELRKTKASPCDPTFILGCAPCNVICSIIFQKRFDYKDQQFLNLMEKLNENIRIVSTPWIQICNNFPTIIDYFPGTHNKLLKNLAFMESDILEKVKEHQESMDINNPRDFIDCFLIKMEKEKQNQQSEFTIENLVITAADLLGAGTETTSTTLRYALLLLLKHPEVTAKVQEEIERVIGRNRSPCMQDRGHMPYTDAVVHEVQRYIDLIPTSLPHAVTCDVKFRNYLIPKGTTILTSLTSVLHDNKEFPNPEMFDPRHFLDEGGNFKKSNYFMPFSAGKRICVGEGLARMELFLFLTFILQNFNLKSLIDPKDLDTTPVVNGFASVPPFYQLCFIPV

human CYP2A6 [3] = target: T1, human CYP2A6; assay: CYP2A6 mediated coumarin 7-hydroxylation inhibition
[4] = Mouse liver microsome stability assay; conditions: mouse liver microsomes; for MLM t1/2: 40 μM test compound; for half-life at 40 μM: mouse, pH 7.4
Description: The residue was reconstituted in methanol (200 μL), centrifuged at 13,000 rpm for 5 min and the supernatant was analyzed by high-performance liquid chromatography with an Axxi-chrom (straight-phase) silica column (4.6 mm×250 mm, 5 μm) or with a Supelco (reverse-phase) HS F5 pentafluorophenyl column (4.6 mm×250 mm, 5 μm).

[5] = Human liver microsome stability assay; conditions: human liver microsomes; for half-life at 40 μM: human, pH 7.4
P450 2A6dH [6] = target: T2, P450 2A6dH (Homo sapiens (Human), UniProt P11509, INS494HHHH); assay: Difference spectra of test compounds with N-terminal truncated CYP2A6; conditions: for λmax / λmin: difference spectrum; for binding type: difference spectrum with truncated CYP2A6
T2 sequence (P11509 other isoform, or with tags, fused parts or gaps 1-28 replaced by MAKKTS/ins HHHH behind 494): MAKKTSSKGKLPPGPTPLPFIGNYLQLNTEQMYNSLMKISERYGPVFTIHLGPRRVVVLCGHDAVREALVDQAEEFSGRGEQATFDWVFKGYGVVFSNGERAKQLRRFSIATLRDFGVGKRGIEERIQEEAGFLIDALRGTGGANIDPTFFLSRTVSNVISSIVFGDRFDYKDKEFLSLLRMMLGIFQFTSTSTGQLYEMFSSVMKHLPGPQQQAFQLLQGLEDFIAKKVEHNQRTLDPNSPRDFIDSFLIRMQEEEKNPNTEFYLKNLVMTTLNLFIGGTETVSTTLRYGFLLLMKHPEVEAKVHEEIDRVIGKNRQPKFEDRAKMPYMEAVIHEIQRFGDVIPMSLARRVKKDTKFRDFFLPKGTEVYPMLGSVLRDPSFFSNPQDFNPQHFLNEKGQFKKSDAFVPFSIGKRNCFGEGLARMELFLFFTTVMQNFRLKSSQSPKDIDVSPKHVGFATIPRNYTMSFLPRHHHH
Description: (§1) Subsequently, test compound (in 100% ethanol, 10 μM) was added to both the cuvettes. The maximal ethanol concentration used was 2%. The difference spectra were obtained after the system reached equilibrium (3 min). All spectra were recorded at 25° C.

[7] = target: CYP2B6 relative to CYP2A6 (Homo sapiens (Human), UniProt P20813); assay: CYP2B6 Vivid blue substrate O-dealkylation inhibition; assay type: biochemical; conditions: human, recombinant CYP2B6 BACULOSOMES, pH 8, probe Vivid blue substrate (5 μM), O-dealkylation; read-out: 2B6/2A6 selectivity ratio (IC50 CYPX/IC50 CYP2A6)
Chain of CYP2B6 relative to CYP2A6 (P20813 whole entry): as the sequence (P20813 whole entry) above

[8] = target: CYP3A4 relative to CYP2A6 (Homo sapiens (Human), UniProt P08684); assay: in vitro; conditions: human; for selectivity ratio at 30 min: pH 7.5
Chain of CYP3A4 relative to CYP2A6 (P08684 whole entry): as the sequence (P08684 whole entry) above

[9] = target: CYP2D6 relative to CYP2A6 (Homo sapiens (Human), UniProt P10635); assay: CYP2D6 Vivid blue substrate O-dealkylation inhibition; assay type: biochemical; conditions: human, recombinant CYP2D6 BACULOSOMES, pH 8, probe Vivid blue substrate (10 μM), O-dealkylation; read-out: 2D6/2A6 selectivity ratio (IC50 CYPX/IC50 CYP2A6)
Chain of CYP2D6 relative to CYP2A6 (P10635 whole entry): as the sequence (P10635 whole entry) above

[10] = target: CYP2E1 relative to CYP2A6 (Homo sapiens (Human), UniProt P05181); assay: CYP2E1 Vivid blue substrate O-dealkylation inhibition; assay type: biochemical; conditions: human, recombinant CYP2E1 BACULOSOMES, pH 8, probe Vivid blue substrate (10 μM), O-dealkylation; read-out: 2E1/2A6 selectivity ratio (IC50 CYPX/IC50 CYP2A6)
Chain of CYP2E1 relative to CYP2A6 (P05181 whole entry): as the sequence (P05181 whole entry) above

[11] = target: CYP2C9 relative to CYP2A6 (Homo sapiens (Human), UniProt P11712); assay: CYP2C9 Vivid blue substrate O-dealkylation inhibition; assay type: biochemical; conditions: human, recombinant CYP2C9 BACULOSOMES, pH 8, probe Vivid blue substrate (10 μM), O-dealkylation; read-out: 2C9/2A6 selectivity ratio (IC50 CYPX/IC50 CYP2A6)
[12] = target: CYP2C19 relative to CYP2A6 (Homo sapiens (Human), UniProt P33261); assay: CYP2C19 Vivid blue substrate O-dealkylation inhibition; assay type: biochemical; conditions: human, recombinant CYP2C19 BACULOSOMES, pH 8, probe Vivid blue substrate (10 μM), O-dealkylation; read-out: 2C19/2A6 selectivity ratio (IC50 CYPX/IC50 CYP2A6)
P450 2A6dH [13] = target: T2, P450 2A6dH
Description: as §1

human CYP2A6 [14] = target: T1, human CYP2A6; assay: biochemical
mouse CYP2A5 = mouse CYP2A5 (Mus musculus (Mouse), UniProt P20852); assay: Inhibition of mouse CYP2A5; assay type: biochemical; conditions: read-out: IC50 mCYP2A5
CYP2A13 [15] = target: T3, CYP2A13 (Homo sapiens (Human), UniProt Q16696); assay: Inhibition of human CYP2A13; conditions: for inhibition at 1 µM: human
T3 sequence (Q16696 whole entry): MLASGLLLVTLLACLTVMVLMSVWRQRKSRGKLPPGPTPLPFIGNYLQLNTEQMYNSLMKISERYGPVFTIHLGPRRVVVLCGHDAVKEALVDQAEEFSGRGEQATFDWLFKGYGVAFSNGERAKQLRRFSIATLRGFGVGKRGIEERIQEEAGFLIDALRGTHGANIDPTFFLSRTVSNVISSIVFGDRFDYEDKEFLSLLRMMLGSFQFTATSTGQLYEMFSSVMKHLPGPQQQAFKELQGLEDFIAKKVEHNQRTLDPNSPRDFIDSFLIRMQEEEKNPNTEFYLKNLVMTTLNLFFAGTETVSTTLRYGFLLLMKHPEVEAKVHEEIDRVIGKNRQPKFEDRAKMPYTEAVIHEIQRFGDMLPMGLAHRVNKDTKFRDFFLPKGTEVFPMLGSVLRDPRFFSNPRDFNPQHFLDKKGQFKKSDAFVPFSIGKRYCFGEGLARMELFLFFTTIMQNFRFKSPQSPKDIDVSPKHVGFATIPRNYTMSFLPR

CYP2A13 [16] = target: T3, CYP2A13; assay: in vitro
[17] = Table 4, unit inferred, read-out: 2B6 IC50 ± SD
[18] = Table 4, unit inferred, read-out: 2D6 IC50 ± SD
[19] = Table 4, unit inferred, read-out: 2E1 IC50 ± SD
[20] = read-out: 2A6 IC50 ± SD, Table 4, unit not given (same data in Table 1 in μM)
[21] = Table 4, unit inferred, read-out: 2C9 IC50 ± SD
[22] = Table 4, unit inferred, read-out: 2C19 IC50 ± SD
[23] = read-out: CYP2A6 IC50, coumarin 7-hydroxylation

Chain of Ach binding protein (AchBP) (P58154 20-229 limits assumed): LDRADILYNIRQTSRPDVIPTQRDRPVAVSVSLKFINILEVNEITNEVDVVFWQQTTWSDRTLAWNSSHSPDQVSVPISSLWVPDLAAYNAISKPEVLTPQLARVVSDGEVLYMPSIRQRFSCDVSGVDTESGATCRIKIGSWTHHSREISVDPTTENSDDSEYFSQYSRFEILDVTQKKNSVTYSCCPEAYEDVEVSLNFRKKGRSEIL

NCC1CCC(c2cccnc2)O1 (racemic) [Compound 38]
binding to the AchBP (in words) [1]: modest binding avidity | AchBP [1]: + | Selectivity ratio (IC50 CYPX/IC50 CYP2A6) 2B6/2A6 (CYP2B6; human CYP2B6 versus human CYP2A6): 69 | IC50 (CYP2B6; read-out: IC50 ± SD 2B6, insect cell microsomes expressing CYP2B6, 0.2M potassium phosphate buffer, mean of at least 3 determinations ± SD): 256 ± 29 µM | IC50 (CYP3A4; human, microsomes, pH 7.5): 77.5 ± 14.6 µM | Selectivity ratio (IC50 CYPX/IC50 CYP2A6) 3A4/2A6 (CYP3A4; human, pH 7.5): 21 | Selectivity ratio (IC50 CYPX/IC50 CYP2A6) 2D6/2A6 (CYP2D6; human CYP2D6 versus human CYP2A6): 53 | IC50 (CYP2D6; read-out: IC50 ± SD 2D6, insect cell microsomes expressing CYP2D6, 0.2M potassium phosphate buffer, mean of at least 3 determinations ± SD): 197 ± 21 µM | Selectivity ratio (IC50 CYPX/IC50 CYP2A6) 2E1/2A6 (CYP2E1; human CYP2E1 versus human CYP2A6): 21 | IC50 (CYP2E1; read-out: IC50 ± SD 2E1, insect cell microsomes expressing CYP2E1, 0.2M potassium phosphate buffer, mean of at least 3 determinations ± SD): 77.5 ± 14.6 µM | CYP2A6 inhibition (in words) (human CYP2A6 [2]): significantly diminished | IC50 (Microsomal Human CYP2A6): 5.21 ± 1.68 µM | Selectivity ratio (IC50 CYPX/IC50 CYP2A6) 2C9/2A6 (CYP2C9; human CYP2C9 versus human CYP2A6): 56 | IC50 (CYP2C9; read-out: IC50 ± SD 2C9, insect cell microsomes expressing CYP2C9, 0.2M potassium phosphate buffer, mean of at least 3 determinations ± SD): 208 ± 21 µM | Selectivity ratio (IC50 CYPX/IC50 CYP2A6) 2C19/2A6 (CYP2C19; human CYP2C19 versus human CYP2A6): 62 | IC50 (CYP2C19; read-out: IC50 ± SD 2C19, insect cell microsomes expressing CYP2C19, 0.2M potassium phosphate buffer, mean of at least 3 determinations ± SD): 233 ± 21 µM

CNCc1ccc(-c2cccnc2)s1 [Compound 1b]
IC50 (CYP2B6; [17]): > 400 µM | IC50 (CYP3A4): > 400 µM | IC50 (CYP2D6; [18]): 113 ± 19 µM | IC50 (CYP2E1; [19]): > 400 µM | IC50 (human CYP2A6 [3]; [20]): 1.1 ± 0.13 µM | MLM t1/2 [4]: Stable^a | half-life at 40 μM [5]: 96 min | λmax (P450 2A6dH [6]): 430 nm | λmin (P450 2A6dH [6]): 410 nm | binding type (P450 2A6dH [6]): Type II | IC50 (CYP2C9; [21]): 67.7 ± 3.7 µM | IC50 (CYP2C19; [22]): 59.8 ± 6.5 µM

CN(C)Cc1ccc(-c2cccnc2)s1 [Compound 1c]
IC50 (CYP2B6; [17]): > 400 µM | selectivity ratio at 40 min [7]: > 3 | selectivity ratio at 30 min [8]: 1.6 | IC50 (CYP3A4): 219 ± 23 µM | selectivity ratio at 40 min [9]: 0.2 | IC50 (CYP2D6; [18]): 28.7 ± 4.1 µM | selectivity ratio at 40 min [10]: > 3 | IC50 (CYP2E1; [19]): > 400 µM | IC50 (human CYP2A6 [3]; [20]): 133 ± 21 µM | half-life at 40 μM [4]: 343 min | HLM t1/2 ([5]; 40 μM test compound): Stable^a | λmax (P450 2A6dH [6]): 428 nm | λmin (P450 2A6dH [6]): 411 nm | binding type (P450 2A6dH [6]): Type II | selectivity ratio at 40 min [11]: 1.5 | IC50 (CYP2C9; [21]): 206 ± 23 µM | IC50 (CYP2C19; [22]): 106 ± 18 µM | selectivity ratio at 40 min [12]: 0.8

NCc1ccc(-c2cccnc2)o1 [Compound 2a]
2B6/2A6 selectivity ratio (IC50 CYPX/IC50 CYP2A6) (CYP2B6): 707 | IC50 (CYP2B6; [17]): 191 ± 24 µM | IC50 (CYP3A4): 47.1 ± 18.1 µM | 2D6/2A6 selectivity ratio (IC50 CYPX/IC50 CYP2A6) (CYP2D6): 42 | IC50 (CYP2D6; [18]): 11.3 ± 2.6 µM | 2E1/2A6 selectivity ratio (IC50 CYPX/IC50 CYP2A6) (CYP2E1): 637 | IC50 (CYP2E1; [19]): 172 ± 52 µM | IC50 (human CYP2A6 [2]): 0.27 ± 0.02 µM | binding type (P450 2A6dH [13]): Type II | λmax (P450 2A6dH [13]): 428 nm | λmin (P450 2A6dH [13]): 409 nm | half-life at 40 μM [4]: 37 min | half-life at 40 μM [5]: 37 min | IC50 (CYP2C9; [21]): 11.7 ± 2.2 µM | IC50 (CYP2C19; [22]): 22 ± 1.6 µM

CNCc1ccc(-c2cccnc2)o1 [Compound 2b]
IC50 (CYP2B6; [17]): 358 ± 22 µM | selectivity ratio at 40 min [7]: 224 | selectivity ratio at 30 min [8]: > 250 | IC50 (CYP3A4): > 400 µM | selectivity ratio at 40 min [9]: 57 | IC50 (CYP2D6; [18]): 90.6 ± 7.8 µM | selectivity ratio at 40 min [10]: > 250 | IC50 (CYP2E1; [19]): > 400 µM | IC50 (human CYP2A6 [3]; [20]): 1.6 ± 0.34 µM | MLM t1/2 [4]: Stable^a | half-life at 40 μM [5]: 66 min | λmax (P450 2A6dH [6]): 431 nm | λmin (P450 2A6dH [6]): 411 nm | binding type (P450 2A6dH [6]): Type II | selectivity ratio at 40 min [11]: 48 | IC50 (CYP2C9; [21]): 76.1 ± 9.1 µM | IC50 (CYP2C19; [22]): 30.6 ± 4.1 µM | selectivity ratio at 40 min [12]: 19

Cc1ccsc1-c1cccnc1 [Compound 4]
half-life at 40 μM [4]: 41 min | half-life at 40 μM [5]: 32 min

BrCC1CCC(c2cccnc2)O1 (stereo not drawn) [Compound 32]
IC50 (Microsomal Human CYP2A6): 0.36 ± 0.18 µM

O/N=C/c1ccc(-c2cccnc2)o1 [Compound 39]
IC50 (CYP3A4; human, pH 7.5): > 400 µM | IC50 (human CYP2A6 [14]): 9.75 ± 0.91 µM

CCC1CCC(c2cccnc2)O1 (stereo not drawn) [Compound 44]
IC50 (human CYP2A6 [3]; [23]): 13.6 ± 3.48 µM | IC50 (Microsomal Human CYP2A6): 0.02 ± 0.02 µM | inhibition of microsomal nicotine oxidase (in words) (Microsomal Human CYP2A6): quite potent

CN1CCCC1c1cccnc1 (stereo not drawn) [Compound 54, Nicotine]
Ki (human CYP2A6 [14]): 4.4 ± 0.6 µM

CN1CCCC1c1cccnc1 (stereo not drawn) [Compound 54]
selectivity ratio ([8]; pH 7.5, Selectivity Ratio: IC50 (Inhibition of CYP3A4)/IC50 (Inhibition of CYP2A6)): 5 | IC50 (CYP3A4): 142 ± 15.7 µM | IC50 (human CYP2A6 [14]): 26.3 ± 3.4 µM

OCC1CCC(c2cccnc2)O1 (stereo not drawn) [Compound 69]
binding to the AchBP (in words) [1]: non-binders | AchBP [1]: − | IC50 (human CYP2A6 [3]; [23]): 61.4 ± 17.7 µM

Cc1ccsc1-c1cccnc1 [TD-II-025]
IC50 (mouse CYP2A5): 0.3 µM | IC50 (CYP2A13 [15]): ~1 µM | inhibition at 1 µM (CYP2A13 [15]): 51%

O/N=C/c1ccc(-c2cccnc2)o1 [TD-II-065 ESP trans isomer]
IC50 (human CYP2A6 [2]; human, pH 7.5): 4.24 ± 0.49 µM | inhibition at 1 µM (CYP2A13 [16]): 41%

CNCc1ccc(-c2cccnc2)s1 [TD-IV-073 30]
IC50 (mouse CYP2A5): 0.9 µM | IC50 (human CYP2A6 [3]; [23]): 1.1 ± 0.13 µM | inhibition at 1 µM (CYP2A13 [15]): 17%

CNCC#Cc1cccnc1 [TD-IV-091 41]
inhibition at 1 µM (CYP2A13 [16]): 2%

CC(=O)SCc1ccc(-c2cccnc2)o1 [TD-V-099]
inhibition at 1 µM (CYP2A13 [15]): 13% | IC50 (human CYP2A6 [14]): 1.8 ± 0.3 µM
